We go through 9 molecules from BindingDB's records for doi:10.1021/jm00023a011 (Agricultural University of Athens, 1995).

The target of test [1] is T1, Phospholipase A1 member A (Rattus norvegicus, UniProt P97535).
T1 sequence (P97535 whole entry): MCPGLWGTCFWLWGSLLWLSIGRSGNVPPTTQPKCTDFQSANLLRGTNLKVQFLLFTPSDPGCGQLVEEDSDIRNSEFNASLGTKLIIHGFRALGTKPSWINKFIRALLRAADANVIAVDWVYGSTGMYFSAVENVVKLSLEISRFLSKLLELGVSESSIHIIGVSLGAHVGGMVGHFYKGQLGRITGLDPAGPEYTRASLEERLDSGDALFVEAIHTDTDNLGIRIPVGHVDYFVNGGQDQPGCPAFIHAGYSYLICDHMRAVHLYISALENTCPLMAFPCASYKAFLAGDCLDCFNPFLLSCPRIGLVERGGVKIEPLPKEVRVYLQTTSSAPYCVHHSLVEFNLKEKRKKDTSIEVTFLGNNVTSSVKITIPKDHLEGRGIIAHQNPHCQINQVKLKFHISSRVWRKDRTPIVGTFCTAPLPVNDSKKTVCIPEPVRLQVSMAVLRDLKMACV
In words: IC50 was measured as concentration causing 50% inhibition of lysosomal phospholipase A1 activity.

In test [2] the target is T1, Phospholipase A1 member A. In words: IC50 was measured as concentration causing 50% inhibition of lysosomal phospholipase A1 activity.

In test [1], `C[C@H](N)C(=O)N[C@@H](C)C(=O)NC[C@H]1O[C@H](O[C@H]2[C@@H](O)[C@@H](O[C@H]3O[C@@H](CO)[C@@H](O)[C@H](N)[C@@H]3O)[C@H](N)C[C@@H]2N)[C@H](O)[C@H](O)[C@@H]1O` returned an IC50 of 49.4 µM.

The molecule `CCN[C@@H]1C[C@H](N)[C@@H](O[C@H]2OC(CN)=CC[C@H]2N)[C@H](O)[C@H]1O[C@H]1OC[C@](C)(O)[C@H](NC)[C@H]1O` [Netilmicin] showed a half-maximal inhibitory concentration (IC50) in test [2] of 115 µM. Still for that read-out and setting: with `CC(N)C(=O)NCC1OC(OC2C(N)CC(N)C(OC3OC(CO)C(O)C(N)C3O)C2O)C(O)C(O)C1O` (centres undefined) the figure was 75.5 µM; with `CN[C@@H]1[C@@H](O)[C@@H](O[C@@H]2[C@@H](O)[C@H](O[C@H]3O[C@H]([C@@H](C)NC)CC[C@H]3N)[C@@H](N)C[C@H]2N)OC[C@]1(C)O` [GENTAMICIN], 94.2 µM; with `CCNC1CC(N)C(OC2OC(CNC(=O)C(C)N)=CCC2N)C(O)C1OC1OCC(C)(O)C(NC)C1O` (centres undefined), 91.4 µM.

Consider `CCNC1CC(N)C(OC2OC(CNC(=O)C(N)CC(=O)O)=CCC2N)C(O)C1OC1OCC(C)(O)C(NC)C1O` (centres undefined), for which, in test [1], half-maximal inhibition (IC50) was put at 132 µM. On the same count and under the same terms, with `CCN[C@@H]1C[C@H](N)[C@@H](O[C@H]2OC(CNC(=O)[C@H](C)NC(=O)[C@H](C)N)=CC[C@H]2N)[C@@H](O)[C@H]1O[C@H]1OC[C@](C)(O)[C@H](NC)[C@@H]1O` the figure was 101 µM. On to `NC[C@H]1O[C@H](O[C@H]2[C@H](O)[C@@H](O[C@H]3O[C@H](CO)[C@@H](O)[C@H](N)[C@H]3O)[C@H](N)C[C@@H]2N)[C@H](O)[C@@H](O)[C@@H]1O` [CHEBI:17630], for which the half-maximal inhibitory concentration (IC50) in test [2] amounted to 80.4 µM. In test [1], `CCNC1CC(N)C(OC2OC(CNC(=O)CN)=CCC2N)C(O)C1OC1OCC(C)(O)C(NC)C1O` (centres undefined) showed an IC50 of 118 µM.
